Source: ChEMBL document CHEMBL3044529, “7-Hydroxy-coumarin derivatives: synthesis, characterization and preliminary antimicrobial activities” (2011)
Converted amounts (≈) assume the structure as drawn.

Legend:
Assay type in all cases: functional
Salmonella typhimurium = experiment: Antimicrobial activity against Salmonella enterica subsp. enterica serovar Typhimurium by macro dilution test
Pichia kudriavzevii = experiment: Antimicrobial activity against Pichia kudriavzevii by macro dilution test
Pseudomonas aeruginosa = experiment: Antimicrobial activity against Pseudomonas aeruginosa by macro dilution test
Cryptococcus neoformans = experiment: Antimicrobial activity against Cryptococcus neoformans by macro dilution test
Candida albicans = experiment: Antimicrobial activity against Candida albicans by macro dilution test
Staphylococcus aureus = experiment: Antimicrobial activity against Staphylococcus aureus by macro dilution test
Streptococcus pyogenes = experiment: Antimicrobial activity against Streptococcus pyogenes by macro dilution test
Escherichia coli = experiment: Antimicrobial activity against Escherichia coli by macro dilution test
Candida parapsilosis = experiment: Antimicrobial activity against Candida parapsilosis by macro dilution test; details: Lodderomyces parapsilosis
Bacillus subtilis = experiment: Antimicrobial activity against Bacillus subtilis by macro dilution test

Compound | MIC (Salmonella typhimurium) | MIC (Pichia kudriavzevii) | MIC (Pseudomonas aeruginosa) | MIC (Cryptococcus neoformans) | MIC (Candida albicans) | MIC (Staphylococcus aureus) | MIC (Streptococcus pyogenes) | MIC (Escherichia coli) | MIC (Candida parapsilosis) | MIC (Bacillus subtilis)
CCCCC/C=C\CC[C@H](O)CCCCCCCC(=O)Oc1ccc2ccc(=O)oc2c1 | 64 µg/mL (≈ 145 µM) | 256 µg/mL (≈ 578 µM) | 128 µg/mL (≈ 289 µM) | 8 µg/mL (≈ 18.1 µM) | 2 µg/mL (≈ 4.52 µM) | 32 µg/mL (≈ 72.3 µM) | 32 µg/mL (≈ 72.3 µM) | 32 µg/mL (≈ 72.3 µM) | 16 µg/mL (≈ 36.2 µM) | 64 µg/mL (≈ 145 µM)
CCCCCC[C@@H](O)C/C=C\CCCCCCCC(=O)Oc1ccc2ccc(=O)oc2c1 | 64 µg/mL (≈ 145 µM) | 256 µg/mL (≈ 578 µM) | 128 µg/mL (≈ 289 µM) | 16 µg/mL (≈ 36.2 µM) | 4 µg/mL (≈ 9.04 µM) | 32 µg/mL (≈ 72.3 µM) | 64 µg/mL (≈ 145 µM) | 64 µg/mL (≈ 145 µM) | 16 µg/mL (≈ 36.2 µM) | 64 µg/mL (≈ 145 µM)
CCCCCCCC/C=C\CCCCCCCC(=O)Oc1ccc2ccc(=O)oc2c1 | 128 µg/mL (≈ 300 µM) | 512 µg/mL (≈ 1200 µM) | 128 µg/mL (≈ 300 µM) | 32 µg/mL (≈ 75 µM) | 8 µg/mL (≈ 18.8 µM) | 128 µg/mL (≈ 300 µM) | 128 µg/mL (≈ 300 µM) | 128 µg/mL (≈ 300 µM) | 64 µg/mL (≈ 150 µM) | 64 µg/mL (≈ 150 µM)
C=CCCCCCCCCC(=O)Oc1ccc2ccc(=O)oc2c1 | 64 µg/mL (≈ 195 µM) | 256 µg/mL (≈ 780 µM) | 128 µg/mL (≈ 390 µM) | 16 µg/mL (≈ 48.7 µM) | 4 µg/mL (≈ 12.2 µM) | 128 µg/mL (≈ 390 µM) | 64 µg/mL (≈ 195 µM) | 128 µg/mL (≈ 390 µM) | 32 µg/mL (≈ 97.4 µM) | 64 µg/mL (≈ 195 µM)
O=C(N[C@H](CO)[C@H](O)c1ccc([N+](=O)[O-])cc1)C(Cl)Cl [CHLORAMPHENICOL] | 32 µg/mL (≈ 99 µM) | – | 64 µg/mL (≈ 198 µM) | – | – | 32 µg/mL (≈ 99 µM) | 32 µg/mL (≈ 99 µM) | 32 µg/mL (≈ 99 µM) | – | 32 µg/mL (≈ 99 µM)
OC(Cn1cncn1)(Cn1cncn1)c1ccc(F)cc1F [FLUCONAZOLE] | – | 64 µg/mL (≈ 209 µM) | – | 8 µg/mL (≈ 26.1 µM) | 1 µg/mL (≈ 3.27 µM) | – | – | – | 8 µg/mL (≈ 26.1 µM) | –
